The PolyMetriX glass transition set
± gives the standard deviation of the reports.

In order of falling glass transition temperature:
1. *c1ccc(N2C(=O)c3c(c(-c4ccccc4)c(-c4ccc(-c5c(-c6ccccc6)c6c(c(-c7ccccc7)c5-c5ccccc5)C(=O)N(*)C6=O)cc4)c(-c4ccccc4)c3-c3ccccc3)C2=O)cc1 (repeat unit)  466.00 °C
2. *c1ccc(-c2cc(C(C)(C)C)c(Oc3ccc(N4C(=O)c5ccc(-c6ccc7c(c6)C(=O)N(*)C7=O)cc5C4=O)cc3C(F)(F)F)c(C(C)(C)C)c2)cc1 (repeat unit)  389.00 °C
3. *C(=O)Nc1ccc(C(=O)Nc2ccc(NC(=O)c3ccc4[nH]c(-c5cccc(-c6nc7cc(*)ccc7[nH]6)c5)nc4c3)cc2)cc1 (repeat unit)  322.00 °C
4. *Nc1ccc(C(C)(C)c2ccc(NC(=O)c3cc(C(*)=O)cc(N4C(=O)C5C6CCC(C6)C5C4=O)c3)cc2)cc1 (repeat unit)  311.00 °C
5. *c1ccc2oc(-c3ccc(C(c4ccccc4)(c4ccc(-c5nc6cc(C(*)(C(F)(F)F)C(F)(F)F)ccc6o5)cc4)C(F)(F)F)cc3)nc2c1 (repeat unit)  310.00 °C
6. *C(=O)c1ccc2c(c1)C(=O)N(c1cccc(P(=O)(c3ccc(Oc4ccc(C56CC7CC(CC(C7)C5)C6)cc4)cc3)c3cccc(N4C(=O)c5ccc(*)cc5C4=O)c3)c1)C2=O (repeat unit)  305.00 °C
7. *C(=O)Nc1ccc(NC(=O)c2ccc(N3C(=O)c4ccc(*)cc4C3=O)cc2)cc1 (repeat unit)  297.50 °C
8. *c1ccc(Oc2ccc(C(c3ccc(Oc4ccc(-c5nnc(*)c6c(-c7ccccc7)c(-c7ccc8ccccc8c7)c(-c7ccc8ccccc8c7)c(-c7ccccc7)c56)cc4)cc3)(C(F)(F)F)C(F)(F)F)cc2)cc1 (repeat unit)  291.00 °C
9. *c1cccc(P(=O)(c2ccc(Oc3ccc(C45CC6CC(CC(C6)C4)C5)cc3)cc2)c2cccc(N3C(=O)c4ccc(Oc5ccc6c(c5)C(=O)N(*)C6=O)cc4C3=O)c2)c1 (repeat unit)  290.00 °C
10. *c1ccc(OC(=O)c2cccc(C(=O)Oc3ccc(C4(*)OC(=O)c5ccccc54)cc3)c2)cc1 (repeat unit)  282.50 °C
11. *c1ccc2c(c1)C(=O)N(c1ccc(Oc3ccc(S(=O)(=O)c4ccc(Oc5ccc(N6C(=O)c7ccc(C(*)(C(F)(F)F)C(F)(F)F)cc7C6=O)cc5)cc4)cc3)cc1)C2=O (repeat unit)  276.50 °C
12. *C(=O)c1ccc2c(c1)C(=O)N(c1c(CC)cc(Cc3cc(CC)c(N4C(=O)c5ccc(*)cc5C4=O)c(CC)c3)cc1CC)C2=O (repeat unit)  272.50 ± 33 °C
13. *c1ccc2c(c1)C(=O)N(c1c(CC)cc(Cc3cc(CC)c(N4C(=O)c5ccc(C(*)(C(F)(F)F)C(F)(F)F)cc5C4=O)c(CC)c3)cc1CC)C2=O (repeat unit)  266.00 °C
14. *c1ccc(Oc2ccc(S(=O)(=O)c3ccc(Oc4ccc(N5C(=O)C6CCC(C7CCC8C(=O)N(*)C(=O)C8C7)CC6C5=O)cc4)cc3)cc2)cc1 (repeat unit)  256.50 °C
15. *C(=O)c1ccc2c(c1)C(=O)N(c1ccc(Oc3ccc(C(C)(C)c4ccc(Oc5ccc(N6C(=O)c7ccc(*)cc7C6=O)cc5)cc4)cc3)cc1)C2=O (repeat unit)  256.00 ± 71 °C
16. *Nc1ccc(C(=O)c2ccc(Nc3ccc4c(c3)c3cc(*)ccc3n4CC(CC)CCCC)cc2)cc1 (repeat unit)  236.1 °C
17. *Oc1ccc(S(=O)(=O)c2ccc(Oc3ccc(P(=O)(c4ccccc4)c4ccc(*)cc4)cc3)cc2)cc1 (repeat unit)  231.00 °C
18. *c1ccc(Oc2c(C)cc(C(c3cccnc3)c3cc(C)c(Oc4ccc(N5C(=O)CC(Nc6cccc(NC7CC(=O)N(*)C7=O)c6)C5=O)cc4)c(C)c3)cc2C)cc1 (repeat unit)  217.00 °C
19. *CC(*)(C)C(=O)OCC1CC(NC(=O)C2CC(NC(=O)OC(C)(C)C)CN2C(=O)OC(C)(C)C)CN1C(=O)C1CC(NC(=O)OC(C)(C)C)CN1C(=O)OC(C)(C)C (repeat unit)  200.00 °C
20. *C(=O)c1ccc2c(c1)C(=O)N(c1ccc(OCCOCCOCCOc3ccc(N4C(=O)c5ccc(*)cc5C4=O)cc3)cc1)C2=O (repeat unit)  200.00 °C
21. *C(=O)Nc1cccc(Oc2cccc(Oc3cccc(Oc4cccc(Oc5cccc(NC(=O)c6ccc7c(c6)C(=O)N(c6ccc(Oc8cccc(Oc9ccc(N%10C(=O)c%11ccc(*)cc%11C%10=O)cc9)c8C#N)cc6)C7=O)c5)c4C#N)c3)c2C#N)c1 (repeat unit)  199.00 °C
22. */C(C#N)=C/c1cc(OCCCCCCCCCC)c(/C=C(\C#N)c2cc(OCCCCCCCCCC)c(*)cc2OC)cc1OC (repeat unit)  198.00 °C
23. *c1ccc(-c2nc3cc(S(=O)(=O)c4ccc5nc(-c6ccccc6)c(-c6ccc(-n7c(=O)c8cc9c(=O)n(*)c(=O)c9cc8c7=O)cc6)nc5c4)ccc3nc2-c2ccccc2)cc1 (repeat unit)  186.00 °C
24. *CC(*)(C)C(=O)Oc1ccc(/N=N/c2ccc(C#N)cc2)cc1 (repeat unit)  185.00 °C
25. *Oc1ccc(C(C)(c2ccccc2)c2ccc(OC(*)=O)cc2)cc1 (repeat unit)  179.00 °C
26. *Nc1ccc(NC(=O)Cc2cc(C)c(CC(*)=O)cc2C)cc1 (repeat unit)  175.00 °C
27. *Oc1cccc(Oc2ccc(/N=C/c3ccc(N(c4ccccc4)c4ccc(/C=N/c5ccc(*)cc5)cc4)cc3)cc2)c1 (repeat unit)  174.00 °C
28. *CCOC(=O)Nc1ccc(C)c(NC(=O)OCCOc2cc([N+](=O)[O-])ccc2/N=N/c2cn(*)c3ccc(-c4ccccc4)cc23)c1 (repeat unit)  165.00 °C
29. *OC(CC(*)=O)C(Cl)(Cl)Cl (repeat unit)  163.50 °C
30. *Oc1ccc(/C(=N/c2ccc(/N=C(\c3ccccc3)c3ccc(Oc4ccc(C(C)(C)c5ccc(*)cc5)cc4)cc3)cc2)c2ccccc2)cc1 (repeat unit)  161.00 °C
31. *Oc1ccc(S(=O)(=O)c2ccc(Oc3ccc(C(c4ccc(*)c([Si](C)(C)C)c4)(C(F)(F)F)C(F)(F)F)cc3[Si](C)(C)C)cc2[Si](C)(C)C)c([Si](C)(C)C)c1 (repeat unit)  148.90 °C
32. *CC(*)(CC(=O)O)C(=O)O (repeat unit)  141.00 °C
33. *Oc1cccc(C(=O)c2ccc(*)cc2)c1 (repeat unit)  137.00 °C
34. *Oc1ccc(/N=C/c2ccc(Oc3ccc(C(C)(C)c4ccc(Oc5ccc(/C=N/c6ccc(Oc7ccc(-c8ccc(*)cc8)cc7)cc6)cc5)cc4)cc3)cc2)cc1 (repeat unit)  120.00 °C
35. *CC(*)c1cc(C(F)(F)F)cc(C(F)(F)F)c1 (repeat unit)  116.00 °C
36. *CCNC(=O)c1ccc([Si](CCCC)(CCCC)c2ccc(C(=O)NCCN(*)c3ccc(/C=C/c4ccc([N+](=O)[O-])cc4)cc3)cc2)cc1 (repeat unit)  115.00 °C
37. *CC(*)c1ccc(CCl)cc1 (repeat unit)  113.50 °C
38. *Oc1ccc(OC(=O)c2ccc(C(*)=O)cc2Oc2ccc(C3CCCCC3)cc2)cc1 (repeat unit)  113.00 °C
39. *CC1CCC(CNC(=O)CCCCCCCCC(=O)N*)CC1 (repeat unit)  89.00 °C
40. *CCOCCOCCOc1ccc(/C=C/c2ccc(/C=C/c3ccc(O*)c4ccccc34)cc2)c2ccccc12 (repeat unit)  83.50 °C
41. *Oc1cccc(OC(=O)Oc2ccc(C(C)(C)c3ccc(OC(*)=O)cc3)cc2)c1 (repeat unit)  83.10 °C
42. *CCOC(=O)c1cccc2c(C(=O)O*)cccc12 (repeat unit)  78.00 °C
43. *CCCCCCN(C)c1ccc(C(=O)c2ccc(N(*)C)cc2)cc1 (repeat unit)  75.50 °C
44. *CCCCCCCCOc1c(OC)cc(/C=C2\CCC/C(=C\c3cc(OC)c(O*)c(OC)c3)C2=O)cc1OC (repeat unit)  62.00 °C
45. *CC(*)(C)C(=O)OCCCCCCCCCCCOc1ccc(/N=N/c2ccc(OC(=O)c3ccc4c(c3)OCCOCCOCCOCCO4)cc2)cc1 (repeat unit)  59.00 °C
46. *CCCCCCCCOC(=O)NCCCCCCNC(=O)O* (repeat unit)  58.00 °C
47. *CC(*)C(=O)OCCCCCCCCCCCOc1ccc(C(=O)Oc2ccc(-c3ccc(OC(C)CCCCCC)cc3)cc2)cc1 (repeat unit)  50.00 °C
48. *CC(*)C(=O)OC(C)(C)C (repeat unit) [Poly(t-butyl acrylate)]  41 ± 0.9 °C
49. *CCOCCOc1ccc(/C=C(\C)c2ccc(O*)cc2)cc1 (repeat unit)  39.00 °C
50. */C=C(\C#N)C(=O)OCCCCCCCCCCOC(=O)/C(C#N)=C/c1ccc2c(c1)c1cc(*)ccc1n2CCCCCCCCCCCCCC (repeat unit)  35.00 °C
51. *CCOCCOC(=O)c1ccc(C(=O)O*)cc1 (repeat unit)  21.90 °C
52. *CCCCCCCCOc1c(OC)cc(/C=C/c2cc(CCCCCC)c(/C=C/c3cc(OC)c(O*)c(OC)c3)cc2CCCCCC)cc1OC (repeat unit)  21.00 °C
53. *COC(=O)OCC1OC(OCC)(OCC)OC1* (repeat unit)  10.80 °C
54. *CCCCCCCCCCOC(=O)c1ccc(C(=O)O*)cc1 (repeat unit)  10.50 °C
55. *CCOC(=O)C1C2C=CC(C2)C1C(=O)O* (repeat unit)  0.00 °C
56. *CC(*)(C)C(=O)OCCCCCCOc1ccc(OC(=O)c2ccc(OCCCCCCCC)cc2)cc1 (repeat unit)  -1.00 °C
57. *[O][Ca][O]C(=O)c1ccccc1C(=O)OCCCCCOC(=O)NCCCCCCNC(=O)OCCCCCOC(=O)c1ccccc1C(*)=O (repeat unit)  -2.40 °C
58. *CCCCCCCCCCOC(=O)CCCCCCCCCCCCCCCCC(=O)O* (repeat unit)  -17.00 °C
59. *ON(C(F)(F)C(*)(F)F)C(F)(F)C(F)(F)Br (repeat unit)  -17.00 °C
60. *CC(*)C(=O)OCCN(C)C (repeat unit)  -39.00 °C
61. *CC(CC)(CC)COC(=O)Nc1ccc(C)c(NC(=O)O*)c1 (repeat unit)  -60.00 °C
62. *O[Si](C)(C=C)O[Si](C)(C)c1ccc([Si](*)(C)C)cc1 (repeat unit)  -63.00 °C
